Measurements as given in ChEMBL document CHEMBL4825753 (J Med Chem, 2021).

Assays:
[1] = AUC in C57BL/6J mouse at 100 mg/kg, po measured up to 24 hrs; type: ADME, organism-based; set-up: route oral, dose 100 mg/kg, time <=24; conditions: in vivo
[2] = target: T1, Receptor-type tyrosine-protein kinase FLT3 (Homo sapiens, UniProt P36888); assay: Inhibition of FLAG-tagged FLT3 (unknown origin) transfected in Cos-7 cells assessed as phosphorylation level incubated for 1 hr by ELISA; type: cell-based
T1 sequence (P36888 whole entry): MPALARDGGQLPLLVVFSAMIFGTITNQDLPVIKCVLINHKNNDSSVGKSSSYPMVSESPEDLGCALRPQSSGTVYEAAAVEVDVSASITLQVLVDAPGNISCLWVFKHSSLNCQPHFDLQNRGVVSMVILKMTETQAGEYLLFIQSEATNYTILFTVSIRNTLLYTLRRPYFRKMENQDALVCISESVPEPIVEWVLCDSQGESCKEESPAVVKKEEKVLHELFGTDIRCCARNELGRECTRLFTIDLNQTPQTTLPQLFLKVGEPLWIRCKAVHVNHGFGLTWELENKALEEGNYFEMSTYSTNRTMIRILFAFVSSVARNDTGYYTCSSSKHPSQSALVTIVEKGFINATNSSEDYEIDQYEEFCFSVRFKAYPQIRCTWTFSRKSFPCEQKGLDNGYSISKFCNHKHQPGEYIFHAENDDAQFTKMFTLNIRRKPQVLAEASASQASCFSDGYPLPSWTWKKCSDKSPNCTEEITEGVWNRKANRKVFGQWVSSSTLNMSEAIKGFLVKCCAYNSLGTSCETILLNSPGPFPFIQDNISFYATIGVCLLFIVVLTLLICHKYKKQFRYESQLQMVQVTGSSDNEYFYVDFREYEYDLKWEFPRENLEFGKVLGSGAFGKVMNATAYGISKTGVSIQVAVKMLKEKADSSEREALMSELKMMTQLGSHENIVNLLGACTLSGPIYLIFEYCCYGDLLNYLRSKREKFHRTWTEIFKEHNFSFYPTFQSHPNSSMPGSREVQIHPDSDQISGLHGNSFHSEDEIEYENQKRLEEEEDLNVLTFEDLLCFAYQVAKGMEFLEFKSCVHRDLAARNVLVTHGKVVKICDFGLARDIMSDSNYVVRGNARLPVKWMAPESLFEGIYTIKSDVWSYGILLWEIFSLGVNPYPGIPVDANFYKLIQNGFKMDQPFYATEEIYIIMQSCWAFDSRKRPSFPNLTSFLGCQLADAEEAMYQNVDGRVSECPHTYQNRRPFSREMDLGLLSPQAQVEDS

[3] = target: T2, Tyrosine-protein kinase receptor TYRO3 (Homo sapiens, UniProt Q06418); assay: Inhibition of FLAG-tagged Tyro3 (unknown origin) transfected in Cos-7 cells assessed as phosphorylation level incubated for 1 hr by ELISA; type: cell-based
T2 sequence (Q06418 whole entry): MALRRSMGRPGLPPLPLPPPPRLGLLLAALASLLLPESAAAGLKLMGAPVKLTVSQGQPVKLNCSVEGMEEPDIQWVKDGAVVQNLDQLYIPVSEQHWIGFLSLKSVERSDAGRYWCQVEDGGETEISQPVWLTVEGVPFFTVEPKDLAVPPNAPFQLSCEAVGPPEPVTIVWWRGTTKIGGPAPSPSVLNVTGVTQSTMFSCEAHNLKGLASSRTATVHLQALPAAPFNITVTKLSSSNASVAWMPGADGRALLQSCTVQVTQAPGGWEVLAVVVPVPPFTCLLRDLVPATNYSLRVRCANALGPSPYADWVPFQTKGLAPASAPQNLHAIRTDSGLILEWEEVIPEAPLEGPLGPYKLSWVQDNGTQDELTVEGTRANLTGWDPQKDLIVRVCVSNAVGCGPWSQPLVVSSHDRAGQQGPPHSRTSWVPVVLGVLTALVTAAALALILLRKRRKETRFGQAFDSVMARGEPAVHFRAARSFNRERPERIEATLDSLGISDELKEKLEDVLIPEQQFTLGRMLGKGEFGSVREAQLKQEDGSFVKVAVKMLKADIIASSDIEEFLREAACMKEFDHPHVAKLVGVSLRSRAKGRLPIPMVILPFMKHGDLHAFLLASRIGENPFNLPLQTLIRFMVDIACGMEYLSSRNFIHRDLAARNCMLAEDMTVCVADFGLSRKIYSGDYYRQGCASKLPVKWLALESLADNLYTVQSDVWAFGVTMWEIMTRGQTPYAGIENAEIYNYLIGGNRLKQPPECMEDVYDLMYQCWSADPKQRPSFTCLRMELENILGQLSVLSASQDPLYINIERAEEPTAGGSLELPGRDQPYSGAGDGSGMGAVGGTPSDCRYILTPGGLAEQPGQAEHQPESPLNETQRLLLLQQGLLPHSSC

[4] = Lipophilicity, log D of the compound at pH 7.4; type: physicochemical; conditions: buffer
[5] = target: T3, Tyrosine-protein kinase receptor UFO (Homo sapiens, UniProt P30530); assay: Inhibition of FLAG-tagged AXL (unknown origin) transfected in Cos-7 cells assessed as phosphorylation level incubated for 1 hr by ELISA; type: cell-based
T3 sequence (P30530 whole entry): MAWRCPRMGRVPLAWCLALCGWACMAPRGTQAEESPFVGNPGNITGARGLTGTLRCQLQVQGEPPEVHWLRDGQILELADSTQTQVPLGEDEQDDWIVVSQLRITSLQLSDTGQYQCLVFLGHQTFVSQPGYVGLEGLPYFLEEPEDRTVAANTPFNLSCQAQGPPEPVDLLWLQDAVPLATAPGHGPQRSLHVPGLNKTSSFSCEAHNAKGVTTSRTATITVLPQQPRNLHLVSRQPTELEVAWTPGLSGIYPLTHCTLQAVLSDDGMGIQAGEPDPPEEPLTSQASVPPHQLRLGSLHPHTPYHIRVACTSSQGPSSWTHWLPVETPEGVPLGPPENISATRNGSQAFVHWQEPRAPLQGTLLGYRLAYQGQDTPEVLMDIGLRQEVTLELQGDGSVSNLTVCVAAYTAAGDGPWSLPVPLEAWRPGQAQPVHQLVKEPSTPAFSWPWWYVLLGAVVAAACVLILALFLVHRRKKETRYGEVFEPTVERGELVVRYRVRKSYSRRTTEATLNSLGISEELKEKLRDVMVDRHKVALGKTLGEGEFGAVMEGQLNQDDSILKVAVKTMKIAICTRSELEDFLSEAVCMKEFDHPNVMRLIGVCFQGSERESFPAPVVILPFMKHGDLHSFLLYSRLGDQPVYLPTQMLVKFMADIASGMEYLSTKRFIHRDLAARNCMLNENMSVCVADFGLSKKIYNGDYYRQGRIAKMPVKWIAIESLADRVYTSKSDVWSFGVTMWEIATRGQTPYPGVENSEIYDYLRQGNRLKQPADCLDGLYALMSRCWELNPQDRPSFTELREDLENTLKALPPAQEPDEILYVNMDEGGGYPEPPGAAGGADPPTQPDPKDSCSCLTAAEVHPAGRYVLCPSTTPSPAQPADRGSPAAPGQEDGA

[6] = Induction efferocytosis in human PBMC assessed as CD14-positive monocytes
[7] = target: T1, Receptor-type tyrosine-protein kinase FLT3; assay: Inhibition of FLT3 (unknown origin) by LC-MS analysis

Compound: Cc1cc(-c2c(C)nn(C)c2C)cnc1-c1nnc(N(C)Cc2ccc3ncc(-c4ccc(CN(C)C)cc4)n3c2)o1
- AUC at 24 h [1]: 71 µM·h
- IC50 [2]: > 31.6 µM
- IC50 [3]: > 31.6 µM
- logD [4]: 2.9
- IC50 [5]: 0.1 µM
- pIC50 [6]: 7.6

Compound: Cc1cc(-c2c(C)nn(C)c2C)cnc1-c1nnc(N(C)Cc2ccc3nccn3c2)o1
- IC50 [2]: > 31.6 µM
- IC50 [3]: > 31.6 µM
- logD [4]: 2.8
- IC50 [5]: 6.31 µM
- IC50 [7]: 20 µM
- pIC50 [6]: 6

Compound: Cc1cc(-c2c(C)nn(C)c2C)ccc1-c1nnc(N(C)Cc2ccc3nccn3c2)o1
- AUC at 24 h [1]: 295 µM·h
- IC50 [2]: 20 µM
- IC50 [3]: > 31.6 µM
- logD [4]: 3.7
- IC50 [5]: 0.398 µM
- IC50 [7]: 15.8 µM
- pIC50 [6]: 6.8
